Test results: patent publication US20050171139A1, “Treating psychotic symptoms” (priority 2003, published 2005)

Experiment: PPI after repeated low-dose ropinirole
Format: in vivo
Conditions: same low doses as quinpirole

CCCN(CCC)CCc1cccc2c1CC(=O)N2 [ropinirole]
effect on PPI over time: acts like quinpirole to attenuate PPI symptoms over time
